Source: paper PMC2978156 (Neuron, 2010)
Values belong to the compound of their own block, whether it stands above or below them.

Assays:
Type in all cases: biochemical
[1] = biological target: T1, VGLUT2 (Rattus norvegicus, UniProt Q9JI12); test: Val-evoked [3H]L-glutamate uptake by proteoliposomes, […] min; conditions: 10 mM Cl-, pH 7.0, 27 C
T1 sequence (Q9JI12 1-582): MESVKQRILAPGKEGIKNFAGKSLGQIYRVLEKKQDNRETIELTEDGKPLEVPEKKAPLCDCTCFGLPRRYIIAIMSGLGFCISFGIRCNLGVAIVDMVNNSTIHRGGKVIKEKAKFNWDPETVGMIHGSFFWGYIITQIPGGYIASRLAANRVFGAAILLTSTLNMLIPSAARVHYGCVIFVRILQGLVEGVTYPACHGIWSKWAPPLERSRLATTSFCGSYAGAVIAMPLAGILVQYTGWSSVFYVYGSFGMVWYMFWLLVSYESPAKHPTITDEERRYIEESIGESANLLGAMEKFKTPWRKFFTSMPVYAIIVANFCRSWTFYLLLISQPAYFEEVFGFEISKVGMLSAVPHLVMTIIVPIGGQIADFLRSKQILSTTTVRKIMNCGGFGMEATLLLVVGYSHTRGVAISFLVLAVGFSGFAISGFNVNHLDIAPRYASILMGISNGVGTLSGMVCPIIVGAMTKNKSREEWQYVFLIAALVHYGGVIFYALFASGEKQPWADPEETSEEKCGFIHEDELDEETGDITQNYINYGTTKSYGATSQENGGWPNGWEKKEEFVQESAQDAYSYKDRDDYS

[2] = biological target: T1, VGLUT2; test: as above
[3] = biological target: T2, VGAT (Rattus norvegicus, UniProt O35458); test: GABA uptake by proteoliposomes
T2 sequence (O35458 1-525): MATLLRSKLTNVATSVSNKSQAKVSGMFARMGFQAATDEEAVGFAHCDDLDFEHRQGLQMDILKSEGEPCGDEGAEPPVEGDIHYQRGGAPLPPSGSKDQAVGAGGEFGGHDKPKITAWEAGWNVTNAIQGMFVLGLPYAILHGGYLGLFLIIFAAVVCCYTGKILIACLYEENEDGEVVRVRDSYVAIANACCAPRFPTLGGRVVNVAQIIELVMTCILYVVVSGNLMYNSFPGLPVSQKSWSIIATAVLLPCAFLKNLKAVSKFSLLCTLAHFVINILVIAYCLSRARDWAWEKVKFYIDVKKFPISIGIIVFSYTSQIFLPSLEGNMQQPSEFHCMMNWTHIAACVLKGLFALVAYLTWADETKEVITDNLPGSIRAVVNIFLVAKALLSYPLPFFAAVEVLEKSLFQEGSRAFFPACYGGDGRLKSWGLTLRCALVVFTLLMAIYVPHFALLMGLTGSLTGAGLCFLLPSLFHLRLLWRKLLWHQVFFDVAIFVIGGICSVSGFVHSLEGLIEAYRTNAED

[4] = biological target: VMAT2 (Rattus norvegicus, UniProt Q01827); test: pH-driven [3H]serotonin uptake by proteoliposomes; conditions: 10 mM Cl-, 10 uM serotonin, pH 7.0 outside; inactive
[5] = biological target: T3, VNUT (Homo sapiens, UniProt Q9BYT1); test: Val-evoked […]ATP uptake by proteoliposomes; conditions: 10 mM Cl-, 0.1 mM ATP, pH 7.0, 27 C; prevented by high Cl-; reversible
T3 sequence (Q9BYT1 1-436): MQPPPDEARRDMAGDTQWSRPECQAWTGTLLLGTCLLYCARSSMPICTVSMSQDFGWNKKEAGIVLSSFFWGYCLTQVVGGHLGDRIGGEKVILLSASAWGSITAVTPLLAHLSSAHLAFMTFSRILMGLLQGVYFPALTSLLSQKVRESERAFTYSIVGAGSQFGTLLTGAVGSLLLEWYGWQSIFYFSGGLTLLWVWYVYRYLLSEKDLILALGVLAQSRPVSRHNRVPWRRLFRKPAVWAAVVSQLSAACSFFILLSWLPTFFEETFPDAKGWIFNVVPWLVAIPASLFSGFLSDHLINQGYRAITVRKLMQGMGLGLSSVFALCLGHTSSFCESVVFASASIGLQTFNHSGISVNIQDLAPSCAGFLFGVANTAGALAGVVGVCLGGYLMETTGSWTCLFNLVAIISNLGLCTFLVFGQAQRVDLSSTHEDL

[6] = biological target: T1, VGLUT2; test: Val-evoked [3H]L-glutamate uptake by proteoliposomes, […] min; conditions: 10 mM Cl-, 100 uM L-glutamate, pH 7.0, 27 C

Chain of VMAT2 (Q01827 whole entry): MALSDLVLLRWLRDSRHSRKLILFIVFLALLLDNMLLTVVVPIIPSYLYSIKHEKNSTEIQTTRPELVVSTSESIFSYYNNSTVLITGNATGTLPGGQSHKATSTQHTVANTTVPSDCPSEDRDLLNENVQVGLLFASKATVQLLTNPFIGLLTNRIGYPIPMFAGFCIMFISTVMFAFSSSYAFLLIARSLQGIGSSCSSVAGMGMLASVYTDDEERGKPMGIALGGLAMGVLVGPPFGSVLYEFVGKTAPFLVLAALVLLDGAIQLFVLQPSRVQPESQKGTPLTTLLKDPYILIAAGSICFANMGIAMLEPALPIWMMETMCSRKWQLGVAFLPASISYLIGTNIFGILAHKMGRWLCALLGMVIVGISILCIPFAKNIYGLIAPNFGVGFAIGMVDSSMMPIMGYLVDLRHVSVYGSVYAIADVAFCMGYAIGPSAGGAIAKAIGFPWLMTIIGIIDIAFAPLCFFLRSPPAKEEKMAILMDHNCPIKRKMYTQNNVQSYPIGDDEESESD

SMILES: Cc1cc(-c2ccc(/N=N/c3ccc4c(S(=O)(=O)O)cc(S(=O)(=O)O)c(N)c4c3O)c(C)c2)ccc1/N=N/c1ccc2c(S(=O)(=O)O)cc(S(=O)(=O)O)c(N)c2c1O [Evans blue]
- Val-evoked [3H]L-glutamate uptake by proteoliposomes, 1 min [1]: sensitivity to Evans blue and diisothiocyanostilbene disulfonic acid (DIDS)

- IC50 [2]: 200 µM
- IC50 [3]: > 5000 µM
SMILES: CC(=O)CC(=O)O [acetoacetate]
- pH-driven [3H]serotonin uptake by proteoliposomes [4]: partially purified VMAT2 was found to be entirely independent of Cl^− and acetoacetate
- dose-dependent inhibition [5]: uptake of ATP by VNUT was similarly inhibited by acetoacetate

SMILES: CC(=O)C(=O)O [pyruvate]
- dose-dependent inhibition [6]: pyruvate, an intermediate in the glycolytic pathway also inhibited glutamate transport

SMILES: C[C@@H](O)CC(=O)O [3-hydroxybutyrate]
- dose-dependent inhibition [6]: ketone bodies (acetoacetate and 3-hydroxybutyrate) inhibited glutamate transport
